In US8318707B2 (priority 2006, dated 2012):

Key:
[1] = system: mixed neural culture of hippocampus cells exposed to kainate; type: cell-based, rat
[2] = system: permanent focal ischemia (occlusion of the middle cerebral artery); test: in vivo permanent focal ischemia model in mice (MCAo), lesion volume by TTC colouring
[3] = system: organotypical slices of rat hippocampus (CA3 region); test: in vitro complex excitotoxicity model: organotypical rat hippocampus culture exposed to kainate; settings: 20 μM, 24 hours

Compound: CC[C@H](CO)Nc1nc(NCc2ccccc2)c2ncn(C(C)C)c2n1 [(R)-roscovitine]
- amount necessary compared with (S)-roscovitine to prevent the death of the same number of neurones [1]: Three times more
- neuronal death percentage (RND) [1]: 62%

Compound: CC[C@@H](CO)Nc1nc(NCc2ccccc2)c2ncn(C(C)C)c2n1 [(S)-roscovitine]
- reduction in the size of the penumbra zone compared with the control ([2]; ICV, 500 μM, 3 hours after occlusion): 35.8%
- volume of the necrotic core ([2]; ICV, 500 μM, 3 hours after occlusion (control 6.06 mm3)): 5.39 mm3
- volume of the penumbra zone ([2]; ICV, 500 μM, 3 hours after occlusion (control 12.68 mm3)): 8.14 mm3
- total volume of the lesion ([2]; ICV, 500 μM, 3 hours after occlusion (control 18.74 mm3)): 13.54 mm3
- reduction in the total volume of the lesion compared with the control ([2]; intracerebroventricular (ICV), 500 μM by osmotic micropump from 48 hours before MCAo, 3 hours after occlusion): 27.7%
- reduction in the size of the penumbra compared with the control ([2]; systemic (PI), 25 mg/kg intraperitoneal x2, 3 hours after occlusion): 38.9%
- volume of the necrotic core ([2]; systemic (PI), 25 mg/kg intraperitoneal x2, 3 hours after occlusion (control 5.03 mm3)): 4.88 mm3
- volume of the penumbra zone ([2]; systemic (PI), 25 mg/kg intraperitoneal x2, 3 hours after occlusion (control 15.31 mm3)): 9.22 mm3
- total volume of the lesion ([2]; systemic (PI), 25 mg/kg intraperitoneal x2, 3 hours after occlusion (control 20.34 mm3)): 14.10 mm3
- reduction in the total volume of the lesion compared with the control ([2]; systemic (PI), 25 mg/kg, 2 intraperitoneal injections 15 minutes before and 1 hour after MCAo, 3 hours after occlusion): 30.7%
- toxic effect on organotypical rat hippocampus cultures [3]: absence of toxic effect
- neurones prevented from death compared with (R)-roscovitine [1]: twice as many
